Data published in patent publication US9988407B2, “Prodrugs of prostate specific membrane antigen (PSMA) inhibitor” (THE JOHNS HOPKINS UNIVERSITY, priority 2014, dated 2018).
“Also recorded” adds a separate entry of the source.

Legend:
[1] = tested on: EAE; conditions: cited from earlier work
[2] = cited from earlier work
[3] = tested on: DSS-induced colitis; experiment: DSS-induced murine model of colitis; assay type: in vivo, C57/B6 mice
Protocol: Disease activity index (DAI), which positively correlated with the disease severity, was used as a measure for clinical activity. * P<0.05;
(§1) To investigate whether PSMA can be a suitable novel therapeutic target for clinical intervention against IBD, the effect of PSMA prototype inhibitors on three most widely used murine models of IBD was tested, including DNBS-induced colitis, DSS-induced colitis, and IL-10 knockout (IL-10 KO) mice (a genetic model that develops spontaneous colitis). In all three models, PSMA inhibitor treatment dramatically ameliorated symptoms. […] The improvement of these prolapse-retracting mice was unequivocally obvious in that their body weight increased dramatically when compared to that of untreated control IL-10 KO mice (FIG. 21C).

[4] = target: T1, PSMA (Mus musculus, UniProt O35409); experiment: PSMA activity in colonic or cecal mucosa of DSS-treated mice; assay type: in vivo; conditions: DSS-induced colitis, mucosa extract
T1 construct: from tissue; host or cells: colonic or cecal mucosa of C57/B6 mice with DSS-induced colitis
T1 sequence (O35409 whole entry): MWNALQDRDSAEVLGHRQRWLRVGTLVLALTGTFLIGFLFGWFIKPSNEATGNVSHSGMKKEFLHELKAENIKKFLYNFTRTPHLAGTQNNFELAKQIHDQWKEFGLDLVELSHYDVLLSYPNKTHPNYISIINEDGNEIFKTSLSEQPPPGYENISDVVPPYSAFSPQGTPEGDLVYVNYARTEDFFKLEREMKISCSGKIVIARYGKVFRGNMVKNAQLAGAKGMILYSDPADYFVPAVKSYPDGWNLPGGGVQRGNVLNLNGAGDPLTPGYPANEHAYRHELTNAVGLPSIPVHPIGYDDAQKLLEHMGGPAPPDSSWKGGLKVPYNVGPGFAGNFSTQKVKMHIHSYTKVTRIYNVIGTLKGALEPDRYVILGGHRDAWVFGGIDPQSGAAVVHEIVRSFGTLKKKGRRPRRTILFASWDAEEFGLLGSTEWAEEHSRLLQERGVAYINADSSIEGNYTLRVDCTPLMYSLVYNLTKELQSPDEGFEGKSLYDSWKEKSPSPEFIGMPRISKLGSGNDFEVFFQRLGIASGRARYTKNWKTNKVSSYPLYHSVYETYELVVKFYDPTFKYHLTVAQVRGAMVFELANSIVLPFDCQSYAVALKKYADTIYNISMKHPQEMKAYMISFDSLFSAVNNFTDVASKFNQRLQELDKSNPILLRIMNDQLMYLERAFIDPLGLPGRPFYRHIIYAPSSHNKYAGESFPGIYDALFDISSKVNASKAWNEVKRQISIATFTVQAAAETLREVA
Protocol: PSMA activity was measured using extract from mucosa;
as §1

[5] = tested on: spontaneous colitis in IL-10 KO mice; experiment: Spontaneous colitis in IL-10 knockout mice; assay type: in vivo, IL-10 KO mice (C57/B6)
Protocol: as §1

O=C(O)CCC(CP(=O)(O)O)C(=O)O (stereo not drawn) [Compound 2-PMPA, 2-phosponomethyl pentanedioic acid]
cognitive function ([1]; EAE mice, Barnes maze): improves cognitive function; also recorded: cognition was significantly improved
brain NAAG ([1]; EAE mice, post mortem analysis): elevates NAAG; also recorded: significant increase in brain NAAG
physical severity of EAE ([1]; EAE mice): no difference in physical severity was observed
fear conditioning, fear memory ([1]; EAE+2-PMPA vs EAE+Vehicle): significant difference between fear memory
oral availability F ([2]; 2-PMPA itself): < 1%
concentrations in the brain ([2]; after 50-100 mg/kg intraperitoneal injection (i.p.) doses): 30 to 50 µM
dose response ([3]; 1, 10, and 100 mg/kg i.p., murine IBD models): dose dependent effect with 100 mg/kg provided the most benefit
efficacy ([3]; i.p. administration at 100 mg/kg, DSS model): excellent efficacy
PSMA activity in colonic or cecal mucosa [4]: effectively suppresses PSMA activity
disease severity (macroscopic disease, prolapse), words ([5]; 100 mg/kg for 2 weeks): not only improvement of disease but even retraction of prolapse; also recorded: significantly reduced the disease severity
complete retraction of prolapse, share of treated mice ([5]; 2 of the 20 mice): 10%
efficacy ([5]; i.p. administration at 100 mg/kg, IL 10 knock out model): excellent efficacy
